Results from patent publication US20020072127A1, “Assay of chemical binding” (priority 2000, published 2002).

Test: Micro-cantilever deflection on ligand-receptor binding (biotin-coated micro-cantilever immersed in water in small vessel)
Source text: Referring to FIG. 1, a micro-cantilever 10 is fixed at one end to a block 12. The micro-cantilever 10 is generally V-shaped in plan, comprising two converging strips 13,14, which are integral with a transverse cross strip 15. It projects 0.2 mm from the block 12, the strips 13 and 14 each being 24 microns wide and the entire micro-cantilever 10 is of silicon nitride of thickness 0.6 microns. The top surface of the micro-cantilever 10 is coated with a 5 nm layer of chromium followed by a 13 nm layer of gold, to improve its optical reflectivity. The gold on one strip 13 is then coated with octadecanethiol, which forms a self-assembled, highly ordered monolayer on gold, and biotin is then bonded to this monolayer. Biotin acts as a selective receptor for avidin.
Referring now to FIG. 2 any deflection or twisting of the micro-cantilever 10 is detected optically, by focusing a light beam from a laser diode 16 onto the cross strip 15, and detecting the reflection with a quadrant photodiode 18. The light intensities detected by the four segments of the photodiodo 19 may be used to determine the deflection of the cross strip 15. If the micro-cantilever 10 is exposed to a solution of avidin, which binds to the biotin, this changes the surface stress of the strip 13, causing the micro-cantilever 10 to twist, so changing the inclination of the cross strip 15.
The time at which the avidin is injected is indicated by the arrow A. Before this time the deflection is substantially constant. The gradual change in deflection over a period of about five minutes, the deflection then reaching a new, steady value differing by h from its initial value. The bending is caused by the surface stress change resulting from the reaction; the change in surface stress is, at least approximately, equal to the change of surface energy, which can be related to the concentration c or the ligand and the equilibrium constant K of the binding reaction onto the surface (i.e. ka/kd, where ka is the adsorption coefficient and kd is the desorption coefficient).

binding strength to biotin relative to immunoglobulin G (FIG. 5, avidin displaces bound immunoglobulin G)	further deflection of the micro-cantilever (FIG. 5, avidin injected (arrow Q) after IgG had bound to biotin, arbitrary units)	deflection of the micro-cantilever resulting from injection (FIG. 5, IgG injected first (arrow P), arbitrary units, steady value after several minutes)	deflection resulting from the initial injection (FIG. 6, concentration in vessel 0.047 μM, after about 10 minutes, arbitrary units)	deflection resulting from the second injection (FIG. 6, concentration raised to 0.068 μM, after a further 10 minutes, arbitrary units)	Substance
binds to biotin more strongly	about 200 units	–	–	–	avidin
–	–	about 200 units	about 235 units	about 290 units	immunoglobulin G
